The source of these data is patent publication US20090144861A1, “Fungicides and Bioregulatory Mixtures” (BASF Aktiengesellschaft, priority 2005, published 2009).

Experiment [1] deals with Puccinia recondita. Description: Curative activity against brown rust of wheat (Puccrt K1). In kind it is in vivo, Puccinia recondita on wheat seedlings cultivar Kanzler. The following applies: sprayed 1 day after inoculation, assessed after 7 days. As for the experimental part:
The active compounds were prepared separately or jointly as a stock solution with 25 mg of active compound which was made up to 10 ml using a mixture of acetone and/or DMSO and the emulsifier Uniperol® EL (wetting agent having emulsifying and dispersing action based on ethoxylated alkylphenols) in a volume ratio of solvent/emulsifier of 99 to 1. The mixture was then made up to 100 ml with water. This stock solution was diluted with the solvent/emulsifier/water mixture described to the concentration of active compounds stated below. […] The expected efficacies of mixtures of active compounds were determined using Colby's formula (Colby, S. R. “Calculating synergistic and antagonistic responses of herbicide combinations”, Weeds, 15, pp. 20-22, 1967) and compared with the observed efficacies. E=x+y−x×y/100 Use Example 1—Curative activity against brown rust of wheat caused by Puccinia recondita (Puccrt K1) Leaves of potted wheat seedlings of the cultivar “Kanzler” were inoculated with a spore suspension of brown rust (Puccinia recondita). The pots were then placed in a chamber with high atmospheric humidity (90 to 95%) at 20 to 22° C. for 24 hours. During this time, the spores germinated and the germ tubes penetrated into the leaf tissue. The next day, the infected plants were sprayed to run off point with the active compound solution described above at the active compound concentration stated below. […] The extent of the rust fungus development on the leaves was then determined. The visually determined values for the percentage of infected leaf area were initially converted into a mean value and then converted into efficacies in % of the untreated control. […] The expected efficacies for active compound combinations were determined using Colby's formula (Colby, S. R. “Calculating synergistic and antagonistic responses of herbicide Combinations”, Weeds, 15, pp. 20-22, 1967) and compared to the observed efficacies. […]

Experiment [2] relates to Erysiphe [syn. Blumeria] graminis forma specialis. tritici. In words: Activity against mildew of wheat (Erysgt P1). It counts as in vivo, Erysiphe graminis f. sp. tritici on wheat seedlings. The following applies: sprayed 24 hours before inoculation, assessed after 7 days. The protocol:
The active compounds were prepared separately or jointly as a stock solution with 25 mg of active compound which was made up to 10 ml using a mixture of acetone and/or DMSO and the emulsifier Uniperol® EL (wetting agent having emulsifying and dispersing action based on ethoxylated alkylphenols) in a volume ratio of solvent/emulsifier of 99 to 1. The mixture was then made up to 100 ml with water. This stock solution was diluted with the solvent/emulsifier/water mixture described to the concentration of active compounds stated below.
The visually determined percentages of infected leaf areas or the measured elongation were converted into efficacies in % of the untreated control:
The efficacy (E) is calculated as follows using Abbot's formula: […]
The expected efficacies of mixtures of active compounds were determined using Colby's formula (Colby, S. R. “Calculating synergistic and antagonistic responses of herbicide combinations”, Weeds, 15, pp. 20-22, 1967) and compared with the observed efficacies.
Use Example 2—Activity against mildew of wheat caused by Erysiphe [syn. Blumeria] graminis forma specialis. tritici (Erysgt P1)
Leaves of potted wheat seedlings were sprayed to run off point with an aqueous suspension having the active compound concentrations stated below. The suspension or emulsion had been prepared as described above. 24 hours after the spray coating had dried on, the plants were dusted with spores of mildew of wheat (Erysiphe [syn. Blumeria] graminis forma specialis. tritici). The test plants were then placed in a greenhouse at temperatures between 20 and 24° C. and at 60 to 90% relative atmospheric humidity. After 7 days, the extent of the mildew development was determined visually in % infection of the entire leaf area.
The visually determined values for the percentage of infected leaf area were initially converted into a mean value and then converted into efficacies in % of the untreated control. An efficacy of 0 means the same degree of infection as in the untreated control, an efficacy of 100 means 0% infection. The expected efficacies for active compound combinations were determined using Colby's formula (Colby, S. R. “Calculating synergistic and antagonistic responses of herbicide Combinations”, Weeds, 15, pp. 20-22, 1967) and compared to the observed efficacies.

[3] abbreviates: Conc. 1 mg/ml, efficacy in % of untreated control.

For the compound `CCC(=O)C1=C([O-])CC(C(=O)[O-])CC1=O.[Ca+2]` (stereo not shown) [Prohexadione-Ca, prohexadione-calcium], the Observed activity in experiment [1] (Conc. 0.06 mg/ml), in experiment [1] (Conc. 1 mg/ml), in experiment [2] (Conc. 0.25 mg/ml) and in experiment [2] (setting [3]) was 0% throughout.

As to `Fc1ccc(C2(Cn3cncn3)OC2c2ccccc2Cl)cc1` (stereo not shown) [Epoxiconazole, epoxiconazole], the Observed activity is given as 11% in experiment [1] (Conc. 0.25 mg/ml, efficacy in % of untreated control); 0% in experiment [2] (Conc. 0.25 mg/ml); 33% in experiment [2] (setting [3]).
